Experimental data from ChEMBL document CHEMBL1153165, “Solvent-free, microwave assisted synthesis of polyhalo heterocyclic ketene aminals as novel anti-cancer agents” (Bioorg Med Chem Lett, 2010).
In brackets after ≈: the same amount, converted by molar mass.

Tests used:
Type in all cases: functional, cell-based
SK-OV-3 = experiment: Antitumor activity against human SKOV3 cells by MTT assay
A-431 = experiment: Antitumor activity against human A431 cells by MTT assay
K562 = experiment: Antitumor activity against human K562 cells by MTT assay
HL-60 = experiment: Antitumor activity against human HL60 cells by MTT assay
HepG2 = experiment: Antitumor activity against human HepG2 cells by MTT assay

| SMILES | IC50 (SK-OV-3) | IC50 (A-431) | IC50 (K562) | IC50 (HL-60) | IC50 (HepG2) |
| --- | --- | --- | --- | --- | --- |
| N#Cc1c(Cl)c(Cl)c(C(C(=O)c2ccccc2)=C2NCCCCN2)c(C#N)c1Cl | 2.7 µg/mL (≈ 6.06 µM) | 1 µg/mL (≈ 2.24 µM) | 0.1 µg/mL (≈ 0.224 µM) | 0.2 µg/mL (≈ 0.449 µM) | 14.5 µg/mL (≈ 32.5 µM) |
| CC(=O)C(=C1NCCN1)c1c(Cl)c(Cl)c(C#N)c(Cl)c1C#N | 14.1 µg/mL (≈ 39.6 µM) | 1.5 µg/mL (≈ 4.22 µM) | 0.1 µg/mL (≈ 0.281 µM) | 3.7 µg/mL (≈ 10.4 µM) | 5.8 µg/mL (≈ 16.3 µM) |
| COc1ccc(C(=O)C(=C2NCCN2)c2c(Cl)c(Cl)c(C#N)c(Cl)c2C#N)cc1 | 6.4 µg/mL (≈ 14.3 µM) | 0.5 µg/mL (≈ 1.12 µM) | 0.08 µg/mL (≈ 0.179 µM) | 2.3 µg/mL (≈ 5.14 µM) | 10.8 µg/mL (≈ 24.1 µM) |
| Cc1ccc(C(=O)C(=C2NCCN2)c2c(Cl)c(Cl)c(C#N)c(Cl)c2C#N)cc1 | 9.2 µg/mL (≈ 21.3 µM) | 4.1 µg/mL (≈ 9.5 µM) | 1.4 µg/mL (≈ 3.24 µM) | 15.7 µg/mL (≈ 36.4 µM) | 15.8 µg/mL (≈ 36.6 µM) |
| CCOC(=O)C(=C1NCCN1)c1c(Cl)c(Cl)c(C#N)c(Cl)c1C#N | 4.1 µg/mL (≈ 10.6 µM) | 0.2 µg/mL (≈ 0.519 µM) | 0.5 µg/mL (≈ 1.3 µM) | 0.4 µg/mL (≈ 1.04 µM) | 0.2 µg/mL (≈ 0.519 µM) |
| CC(=O)C(=C1NCCN1)c1c(Cl)c(F)c(C#N)c(F)c1C#N | 1.5 µg/mL (≈ 4.65 µM) | 2.9 µg/mL (≈ 8.99 µM) | 4.4 µg/mL (≈ 13.6 µM) | 0.3 µg/mL (≈ 0.93 µM) | 1.3 µg/mL (≈ 4.03 µM) |
| CCOC(=O)C(=C1NCCN1)c1c(Cl)c(F)c(C#N)c(F)c1C#N | 4.9 µg/mL (≈ 13.9 µM) | 3.9 µg/mL (≈ 11.1 µM) | 0.09 µg/mL (≈ 0.255 µM) | 0.02 µg/mL (≈ 0.0567 µM) | 2.5 µg/mL (≈ 7.09 µM) |
| N#Cc1c(Cl)c(Cl)c(C(C(=O)c2ccc(F)cc2)=C2NCCCN2)c(C#N)c1Cl | 10.4 µg/mL (≈ 23.1 µM) | 1.1 µg/mL (≈ 2.45 µM) | 0.2 µg/mL (≈ 0.445 µM) | 2.1 µg/mL (≈ 4.67 µM) | 31.8 µg/mL (≈ 70.7 µM) |
| CCOC(=O)C(=C1NCCN1)c1c(F)c(F)c(C#N)c(F)c1C#N | 3.3 µg/mL (≈ 9.81 µM) | 3.7 µg/mL (≈ 11 µM) | 0.03 µg/mL (≈ 0.0892 µM) | 0.02 µg/mL (≈ 0.0595 µM) | 0.7 µg/mL (≈ 2.08 µM) |
| N#Cc1c(Cl)c(Cl)c(C(C(=O)c2ccc(Cl)cc2)=C2NCCN2)c(C#N)c1Cl | 1.6 µg/mL (≈ 3.54 µM) | 1.5 µg/mL (≈ 3.32 µM) | 0.8 µg/mL (≈ 1.77 µM) | 0.5 µg/mL (≈ 1.11 µM) | 5.2 µg/mL (≈ 11.5 µM) |

Results, then the compound that gave them:

| IC50 (SK-OV-3) | IC50 (A-431) | IC50 (K562) | IC50 (HL-60) | IC50 (HepG2) | SMILES |
| --- | --- | --- | --- | --- | --- |
| 1.1 µg/mL (≈ 2.65 µM) | 0.7 µg/mL (≈ 1.69 µM) | 22.6 µg/mL (≈ 54.5 µM) | 0.05 µg/mL (≈ 0.121 µM) | 9.8 µg/mL (≈ 23.6 µM) | COc1ccc(C(=O)C(=C2NCCN2)c2c(Cl)c(F)c(C#N)c(F)c2C#N)cc1 |
| 6.7 µg/mL (≈ 16.8 µM) | 1.7 µg/mL (≈ 4.26 µM) | 41.9 µg/mL (≈ 105 µM) | 0.03 µg/mL (≈ 0.0752 µM) | 49.1 µg/mL (≈ 123 µM) | Cc1ccc(C(=O)C(=C2NCCN2)c2c(Cl)c(F)c(C#N)c(F)c2C#N)cc1 |
| 32.6 µg/mL (≈ 84.7 µM) | 87.1 µg/mL (≈ 226 µM) | 20.8 µg/mL (≈ 54.1 µM) | 4.7 µg/mL (≈ 12.2 µM) | 32.6 µg/mL (≈ 84.7 µM) | N#Cc1c(F)c(Cl)c(C(C(=O)c2ccccc2)=C2NCCN2)c(C#N)c1F |
| 30.3 µg/mL (≈ 82.3 µM) | 5.5 µg/mL (≈ 14.9 µM) | 19.6 µg/mL (≈ 53.2 µM) | 0.2 µg/mL (≈ 0.543 µM) | 9.1 µg/mL (≈ 24.7 µM) | N#Cc1c(F)c(F)c(C(C(=O)c2ccccc2)=C2NCCN2)c(C#N)c1F |
| 8.6 µg/mL (≈ 20.5 µM) | 1.8 µg/mL (≈ 4.29 µM) | 1.6 µg/mL (≈ 3.82 µM) | 0.3 µg/mL (≈ 0.716 µM) | 47.5 µg/mL (≈ 113 µM) | N#Cc1c(F)c(Cl)c(C(C(=O)c2ccc(Cl)cc2)=C2NCCN2)c(C#N)c1F |
| 8.2 µg/mL (≈ 19.7 µM) | 0.9 µg/mL (≈ 2.16 µM) | 1.8 µg/mL (≈ 4.32 µM) | 0.6 µg/mL (≈ 1.44 µM) | 45.1 µg/mL (≈ 108 µM) | N#Cc1c(F)c(Cl)c(C(C(=O)c2ccc(F)cc2)=C2NCCCN2)c(C#N)c1F |
| 4.6 µg/mL (≈ 11.1 µM) | 1.5 µg/mL (≈ 3.63 µM) | 2.1 µg/mL (≈ 5.09 µM) | 0.1 µg/mL (≈ 0.242 µM) | 27.8 µg/mL (≈ 67.3 µM) | N#Cc1c(F)c(Cl)c(C(C(=O)c2ccccc2)=C2NCCCCN2)c(C#N)c1F |
| 9.9 µg/mL (≈ 23.7 µM) | 2.3 µg/mL (≈ 5.51 µM) | 8.5 µg/mL (≈ 20.4 µM) | 9.1 µg/mL (≈ 21.8 µM) | 10.2 µg/mL (≈ 24.4 µM) | N#Cc1c(Cl)c(Cl)c(C(C(=O)c2ccccc2)=C2NCCN2)c(C#N)c1Cl |
| 4.2 µg/mL (≈ 10.6 µM) | 1.9 µg/mL (≈ 4.79 µM) | 0.3 µg/mL (≈ 0.757 µM) | 0.1 µg/mL (≈ 0.252 µM) | 24.9 µg/mL (≈ 62.8 µM) | N#Cc1c(F)c(F)c(C(C(=O)c2ccccc2)=C2NCCCCN2)c(C#N)c1F |
| 2 µg/mL (≈ 5.23 µM) | 0.5 µg/mL (≈ 1.31 µM) | 0.9 µg/mL (≈ 2.35 µM) | 0.04 µg/mL (≈ 0.105 µM) | 29.2 µg/mL (≈ 76.4 µM) | Cc1ccc(C(=O)C(=C2NCCN2)c2c(F)c(F)c(C#N)c(F)c2C#N)cc1 |
| 0.2 µg/mL (≈ 0.453 µM) | 5.3 µg/mL (≈ 12 µM) | 5.6 µg/mL (≈ 12.7 µM) | 0.3 µg/mL (≈ 0.68 µM) | 102 µg/mL (≈ 231 µM) | N#Cc1c(F)c(C#N)c(C(C(=O)c2ccccc2)=C2NCCN2)c(F)c1Nc1ccccc1 |
| 3.8 µg/mL (≈ 9.43 µM) | 3.2 µg/mL (≈ 7.95 µM) | 1.8 µg/mL (≈ 4.47 µM) | 0.3 µg/mL (≈ 0.745 µM) | 12.5 µg/mL (≈ 31 µM) | N#Cc1c(F)c(F)c(C(C(=O)c2ccc(Cl)cc2)=C2NCCN2)c(C#N)c1F |
| 0.5 µg/mL (≈ 1.25 µM) | 1.8 µg/mL (≈ 4.5 µM) | 2.5 µg/mL (≈ 6.24 µM) | 0.04 µg/mL (≈ 0.0999 µM) | 11 µg/mL (≈ 27.5 µM) | N#Cc1c(F)c(F)c(C(C(=O)c2ccc(F)cc2)=C2NCCCN2)c(C#N)c1F |
